From patent publication US12679822B2, “Alkenyl pyrimidine compound, preparation method therefor, and application thereof” (Hongyun Biotech Co., Ltd., priority 2020, dated 2026)

What was measured:
Assay type in all cases: cell-based
[1] = target: BaF3 cell lines stably transfected with kinase EGFR Del (Homo sapiens, UniProt P00533, cells depend on it, form not given); experiment: Growth inhibition of BaF3 cell line stably transfected with kinase EGFR Del (MTS); conditions: 48 h, read-out: growth inhibitory activity IC50, Del
Procedure, shortened: (§1)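 48 h cpd exposure, 37 °C/5% CO2; 8-pt ⅓ dilution from 10 μM; 0.1% DMSO; MTS+PES 1-4 h; OD490; duplicates; IC50 from % inhibition vs DMSO/blank.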

[2] = target: BaF3 cell lines stably transfected with kinase EGFR L858R (Homo sapiens, UniProt P00533, L858R, cells depend on it); experiment: Growth inhibition of BaF3 cell line stably transfected with kinase EGFR L858R (MTS); conditions: 48 h, read-out: growth inhibitory activity IC50, L858R
Procedure, shortened: as §1

[3] = target: BaF3 cell lines stably transfected with kinase EGFR Del/T790M (Homo sapiens, UniProt P00533, T790M, cells depend on it, form not given); experiment: Growth inhibition of BaF3 cell line stably transfected with kinase EGFR Del/T790M (MTS); conditions: 48 h, read-out: growth inhibitory activity IC50, Del/T790M
Procedure, shortened: as §1

[4] = target: BaF3 cell lines stably transfected with kinase EGFR L858R/T790M (Homo sapiens, UniProt P00533, T790M/L858R, cells depend on it); experiment: Growth inhibition of BaF3 cell line stably transfected with kinase EGFR L858R/T790M (MTS); conditions: 48 h, read-out: growth inhibitory activity IC50, L858R/T790M
Procedure, shortened: as §1

[5] = target: BaF3 cell lines stably transfected with kinase EGFR Del/T790M/C797S (Homo sapiens, UniProt P00533, T790M/C797S, cells depend on it, form not given); experiment: Growth inhibition of BaF3 cell line stably transfected with kinase EGFR Del/T790M/C797S (MTS); conditions: 48 h, read-out: growth inhibitory activity IC50, Del/T790M/C797S
Procedure, shortened: as §1

[6] = target: BaF3 cell lines stably transfected with kinase EGFR L858R/T790M/C797S (Homo sapiens, UniProt P00533, T790M/C797S/L858R, cells depend on it); experiment: Growth inhibition of BaF3 cell line stably transfected with kinase EGFR L858R/T790M/C797S (MTS); conditions: 48 h, read-out: growth inhibitory activity IC50, L858R/T790M/C797S
Procedure, shortened: as §1

BaF3 cell lines stably transfected with kinase EGFR L858R/T790M/C797S, sequence (P00533 whole entry T790M/C797S/L858R): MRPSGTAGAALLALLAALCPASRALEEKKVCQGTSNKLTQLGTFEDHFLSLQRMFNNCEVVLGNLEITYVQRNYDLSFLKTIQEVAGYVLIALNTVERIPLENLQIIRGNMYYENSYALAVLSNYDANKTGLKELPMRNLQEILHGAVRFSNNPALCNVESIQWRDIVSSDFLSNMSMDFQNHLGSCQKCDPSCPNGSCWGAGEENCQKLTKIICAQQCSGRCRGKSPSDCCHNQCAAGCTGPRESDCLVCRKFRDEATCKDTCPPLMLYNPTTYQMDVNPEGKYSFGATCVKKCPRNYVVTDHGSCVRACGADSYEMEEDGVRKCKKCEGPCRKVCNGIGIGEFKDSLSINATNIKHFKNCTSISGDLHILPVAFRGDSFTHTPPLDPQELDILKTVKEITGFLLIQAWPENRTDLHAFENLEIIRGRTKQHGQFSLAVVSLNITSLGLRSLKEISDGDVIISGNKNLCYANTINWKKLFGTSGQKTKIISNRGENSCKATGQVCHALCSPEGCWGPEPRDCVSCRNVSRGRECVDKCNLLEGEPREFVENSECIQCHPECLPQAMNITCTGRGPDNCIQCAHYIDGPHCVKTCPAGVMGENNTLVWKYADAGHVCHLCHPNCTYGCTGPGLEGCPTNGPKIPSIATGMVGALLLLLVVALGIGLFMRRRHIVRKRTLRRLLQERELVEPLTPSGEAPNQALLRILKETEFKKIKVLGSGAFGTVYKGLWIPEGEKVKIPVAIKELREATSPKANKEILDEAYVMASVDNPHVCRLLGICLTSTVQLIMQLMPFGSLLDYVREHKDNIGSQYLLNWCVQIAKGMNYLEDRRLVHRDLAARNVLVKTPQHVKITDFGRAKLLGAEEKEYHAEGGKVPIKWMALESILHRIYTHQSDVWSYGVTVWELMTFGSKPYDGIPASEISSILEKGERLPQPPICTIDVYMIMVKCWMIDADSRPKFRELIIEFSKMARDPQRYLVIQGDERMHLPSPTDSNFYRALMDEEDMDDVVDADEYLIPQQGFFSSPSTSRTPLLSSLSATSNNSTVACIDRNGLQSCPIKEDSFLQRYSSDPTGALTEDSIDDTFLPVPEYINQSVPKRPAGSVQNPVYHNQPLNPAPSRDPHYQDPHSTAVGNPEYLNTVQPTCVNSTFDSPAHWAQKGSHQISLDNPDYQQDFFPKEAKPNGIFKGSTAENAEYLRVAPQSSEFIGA
BaF3 cell lines stably transfected with kinase EGFR Del/T790M/C797S, sequence (P00533 with tags, fused parts or gaps DEL746-750/T790M/C797S, form open): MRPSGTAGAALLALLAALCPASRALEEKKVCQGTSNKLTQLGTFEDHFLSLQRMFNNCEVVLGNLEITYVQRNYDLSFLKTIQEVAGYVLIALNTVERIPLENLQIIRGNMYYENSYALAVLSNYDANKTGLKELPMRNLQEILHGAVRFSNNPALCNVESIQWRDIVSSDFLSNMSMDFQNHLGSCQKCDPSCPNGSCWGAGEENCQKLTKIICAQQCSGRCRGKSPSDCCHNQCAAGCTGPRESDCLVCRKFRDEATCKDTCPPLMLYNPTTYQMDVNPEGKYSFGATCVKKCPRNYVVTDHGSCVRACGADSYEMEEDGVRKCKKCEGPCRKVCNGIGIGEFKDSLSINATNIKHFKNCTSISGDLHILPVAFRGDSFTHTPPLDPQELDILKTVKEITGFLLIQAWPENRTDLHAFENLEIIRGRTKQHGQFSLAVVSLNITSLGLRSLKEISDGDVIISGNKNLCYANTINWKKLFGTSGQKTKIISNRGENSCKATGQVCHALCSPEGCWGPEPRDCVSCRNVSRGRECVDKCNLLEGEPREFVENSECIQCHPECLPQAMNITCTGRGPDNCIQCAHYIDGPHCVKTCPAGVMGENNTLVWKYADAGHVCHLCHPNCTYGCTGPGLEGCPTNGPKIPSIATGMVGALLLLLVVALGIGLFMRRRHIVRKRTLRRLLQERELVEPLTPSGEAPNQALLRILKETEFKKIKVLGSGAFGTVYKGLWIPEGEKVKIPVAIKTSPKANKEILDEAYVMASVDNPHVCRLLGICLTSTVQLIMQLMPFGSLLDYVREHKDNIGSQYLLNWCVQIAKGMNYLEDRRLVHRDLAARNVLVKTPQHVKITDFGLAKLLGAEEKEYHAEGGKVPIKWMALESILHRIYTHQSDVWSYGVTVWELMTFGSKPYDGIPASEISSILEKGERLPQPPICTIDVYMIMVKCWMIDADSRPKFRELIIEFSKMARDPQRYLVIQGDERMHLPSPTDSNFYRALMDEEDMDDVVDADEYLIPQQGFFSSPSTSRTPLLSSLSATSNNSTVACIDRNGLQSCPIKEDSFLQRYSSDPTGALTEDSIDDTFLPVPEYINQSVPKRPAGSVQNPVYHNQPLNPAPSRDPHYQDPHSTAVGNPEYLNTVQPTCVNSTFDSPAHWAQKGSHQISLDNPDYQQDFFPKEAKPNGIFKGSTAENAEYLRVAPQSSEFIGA
BaF3 cell lines stably transfected with kinase EGFR Del, sequence (P00533 with tags, fused parts or gaps DEL746-750): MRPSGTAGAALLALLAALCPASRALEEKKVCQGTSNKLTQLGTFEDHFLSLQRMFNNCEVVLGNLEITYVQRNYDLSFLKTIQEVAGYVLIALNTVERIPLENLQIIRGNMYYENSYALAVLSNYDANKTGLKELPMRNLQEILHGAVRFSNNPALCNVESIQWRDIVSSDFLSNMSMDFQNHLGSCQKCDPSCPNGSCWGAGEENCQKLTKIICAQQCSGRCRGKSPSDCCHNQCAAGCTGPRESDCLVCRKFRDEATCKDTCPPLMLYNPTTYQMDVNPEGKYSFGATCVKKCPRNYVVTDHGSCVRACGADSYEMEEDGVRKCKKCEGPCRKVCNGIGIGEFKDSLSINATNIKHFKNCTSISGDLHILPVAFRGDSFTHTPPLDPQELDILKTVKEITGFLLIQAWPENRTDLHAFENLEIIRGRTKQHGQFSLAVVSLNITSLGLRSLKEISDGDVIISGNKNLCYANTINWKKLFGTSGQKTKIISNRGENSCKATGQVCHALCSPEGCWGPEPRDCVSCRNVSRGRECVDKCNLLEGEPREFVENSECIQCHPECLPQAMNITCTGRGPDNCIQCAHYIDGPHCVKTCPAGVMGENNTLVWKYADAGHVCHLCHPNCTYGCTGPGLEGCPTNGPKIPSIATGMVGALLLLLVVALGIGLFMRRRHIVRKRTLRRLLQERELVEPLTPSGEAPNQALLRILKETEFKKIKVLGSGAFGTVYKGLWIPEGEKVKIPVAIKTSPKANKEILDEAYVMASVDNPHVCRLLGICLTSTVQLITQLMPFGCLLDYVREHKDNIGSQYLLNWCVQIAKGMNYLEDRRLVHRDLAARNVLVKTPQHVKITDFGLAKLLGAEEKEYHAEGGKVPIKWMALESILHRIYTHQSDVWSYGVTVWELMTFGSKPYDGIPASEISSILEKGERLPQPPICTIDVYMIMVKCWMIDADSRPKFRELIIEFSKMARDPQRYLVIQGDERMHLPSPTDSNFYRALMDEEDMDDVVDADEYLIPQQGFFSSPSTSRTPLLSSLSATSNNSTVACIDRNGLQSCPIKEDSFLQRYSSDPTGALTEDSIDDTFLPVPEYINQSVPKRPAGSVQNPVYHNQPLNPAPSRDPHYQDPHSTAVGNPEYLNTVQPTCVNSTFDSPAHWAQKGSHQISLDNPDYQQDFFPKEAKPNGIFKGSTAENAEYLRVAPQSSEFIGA
BaF3 cell lines stably transfected with kinase EGFR L858R/T790M, sequence (P00533 whole entry T790M/L858R): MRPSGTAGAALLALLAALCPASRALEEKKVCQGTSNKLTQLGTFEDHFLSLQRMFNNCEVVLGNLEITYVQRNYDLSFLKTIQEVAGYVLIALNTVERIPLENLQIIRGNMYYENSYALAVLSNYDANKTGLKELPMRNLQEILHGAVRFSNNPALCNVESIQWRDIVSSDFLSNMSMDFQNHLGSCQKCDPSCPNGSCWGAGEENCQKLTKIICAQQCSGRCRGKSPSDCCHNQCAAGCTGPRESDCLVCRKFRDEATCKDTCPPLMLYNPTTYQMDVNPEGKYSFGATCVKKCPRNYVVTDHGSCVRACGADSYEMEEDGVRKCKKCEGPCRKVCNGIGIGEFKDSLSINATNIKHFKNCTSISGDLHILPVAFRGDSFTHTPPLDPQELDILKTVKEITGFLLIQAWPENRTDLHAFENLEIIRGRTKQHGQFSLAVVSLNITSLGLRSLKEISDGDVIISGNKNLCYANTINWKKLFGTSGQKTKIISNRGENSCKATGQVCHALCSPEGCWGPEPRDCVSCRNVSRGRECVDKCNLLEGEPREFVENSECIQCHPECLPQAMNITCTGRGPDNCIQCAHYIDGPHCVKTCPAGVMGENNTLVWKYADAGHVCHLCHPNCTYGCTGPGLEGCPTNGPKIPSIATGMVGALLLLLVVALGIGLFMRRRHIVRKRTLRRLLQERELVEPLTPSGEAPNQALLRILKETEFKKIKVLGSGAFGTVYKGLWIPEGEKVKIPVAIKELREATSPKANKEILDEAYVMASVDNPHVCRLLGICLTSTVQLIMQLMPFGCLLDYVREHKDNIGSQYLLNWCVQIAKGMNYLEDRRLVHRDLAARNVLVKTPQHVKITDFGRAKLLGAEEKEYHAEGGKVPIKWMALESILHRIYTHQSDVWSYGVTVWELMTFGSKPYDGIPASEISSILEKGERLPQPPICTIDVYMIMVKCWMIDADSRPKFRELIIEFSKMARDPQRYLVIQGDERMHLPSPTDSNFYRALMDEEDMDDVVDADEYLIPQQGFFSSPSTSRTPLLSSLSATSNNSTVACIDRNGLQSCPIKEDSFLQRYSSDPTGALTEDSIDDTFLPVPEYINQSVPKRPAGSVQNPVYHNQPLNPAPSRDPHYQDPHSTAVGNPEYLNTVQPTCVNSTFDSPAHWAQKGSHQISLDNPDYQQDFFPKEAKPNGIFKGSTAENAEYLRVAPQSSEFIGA

With `C=Cc1cnc(Nc2ccn(C(C)C)n2)nc1Nc1ccc2nccnc2c1N(C)S(C)(=O)=O` [II-61] as the molecule, how does the GI50 [1] read?
The GI50 was 500 to 2500 nM.

What about the GI50 [2] of the same molecule?
The GI50 was at most 50 nM.

What about the GI50 [3] of the same molecule?
Its GI50 is 500 to 2500 nM.

And the GI50 [4]?
The GI50 was 500 to 2500 nM.

What about the GI50 [5] of the same molecule?
The GI50 was 50 to 500 nM.

And the GI50 [6]?
Its GI50 is 50 to 500 nM.

With `C=Cc1cnc(Nc2cc(C3CC3)c(N3CCC(N4CCN(C)CC4)CC3)cc2OC)nc1Nc1ccc2nccnc2c1P(C)(C)=O` [Compound I-17] as the molecule, how does the GI50 [1] read?
The GI50 was 50 to 500 nM.

And the GI50 [2]?
Its GI50 is 50 to 500 nM.

And the GI50 [3]?
The GI50 was 50 to 500 nM.

And the GI50 [4]?
The GI50 was 50 to 500 nM.

What about the GI50 [5] of the same molecule?
Its GI50 is 50 to 500 nM.

And the GI50 [6]?
The GI50 was 50 to 500 nM.

Which results are given for `C=Cc1cnc(Nc2ccc(N3CCC(N4CCN(C)CC4)CC3)c(CC)c2)nc1Nc1ccc2nccnc2c1NS(C)(=O)=O` [II-38]?
GI50 [1]: ≤ 50 nM; GI50 [2]: ≤ 50 nM; GI50 [3]: ≤ 50 nM; GI50 [4]: ≤ 50 nM; GI50 [5]: 50 to 500 nM; GI50 [6]: ≤ 50 nM

What does the source list for `C=Cc1cnc(Nc2cc3c(cc2OC(F)(F)F)CCN(C)C3)nc1Nc1ccc2nccnc2c1N(C)S(C)(=O)=O` [II-76]?
GI50 [1]: 50 to 500 nM; GI50 [2]: 50 to 500 nM; GI50 [3]: 500 to 2500 nM; GI50 [4]: 50 to 500 nM; GI50 [5]: 500 to 2500 nM; GI50 [6]: 50 to 500 nM

Which results are given for `C=Cc1cnc(Nc2cc(C)c(N3CCC(N4CCN(C)CC4)CC3)cc2OC)nc1Nc1ccc2nccnc2c1NS(C)(=O)=O` [II-31]?
GI50 [1]: ≤ 50 nM; GI50 [2]: ≤ 50 nM; GI50 [3]: ≤ 50 nM; GI50 [4]: 50 to 500 nM; GI50 [5]: 50 to 500 nM; GI50 [6]: ≤ 50 nM

How did the GI50 [1] turn out when `C=Cc1cnc(Nc2cc(C(C)C)c(N3CCC(N4CCN(C)CC4)CC3)cc2OC)nc1Nc1ccc2nccnc2c1S(C)(=O)=O` [III-11] was run?
Its GI50 is 500 to 2500 nM.

And the GI50 [2]?
The GI50 was 500 to 2500 nM.

And the GI50 [3]?
Its GI50 is 500 to 2500 nM.

And the GI50 [4]?
The GI50 was 50 to 500 nM.

What about the GI50 [5] of the same molecule?
Its GI50 is 500 to 2500 nM.

What about the GI50 [6] of the same molecule?
Its GI50 is 500 to 2500 nM.

`C=Cc1cnc(Nc2ccc(N3CCC(N4CCN(C)CC4)CC3)cc2OC)nc1Nc1ccc2nccnc2c1S(=O)(=O)NC` [IV-1] was tested. Which GI50 [1] did it give?
Its GI50 is 500 to 2500 nM.

And the GI50 [2]?
The GI50 was 500 to 2500 nM.

What about the GI50 [3] of the same molecule?
The GI50 was 500 to 2500 nM.

What about the GI50 [4] of the same molecule?
Its GI50 is 50 to 500 nM.

What about the GI50 [5] of the same molecule?
The GI50 was 500 to 2500 nM.

And the GI50 [6]?
The GI50 was 500 to 2500 nM.

With `C=C(C)c1cnc(Nc2cnn(C)c2)nc1Nc1ccc2nccnc2c1N(C)S(C)(=O)=O` [II-71] as the molecule, how does the GI50 [1] read?
Its GI50 is 50 to 500 nM.

And the GI50 [2]?
Its GI50 is 50 to 500 nM.

And the GI50 [3]?
Its GI50 is at most 50 nM.

And the GI50 [4]?
The GI50 was at most 50 nM.

And the GI50 [5]?
The GI50 was at most 50 nM.

And the GI50 [6]?
The GI50 was 50 to 500 nM.

How did the GI50 [1] turn out when `CCc1cc(Nc2ncc(/C=C/c3ccccc3)c(Nc3ccc4nccnc4c3N(C)S(C)(=O)=O)n2)c(OC)cc1N1CCC(N2CCN(C)CC2)CC1` [II-29] was run?
The GI50 was 50 to 500 nM.

What about the GI50 [2] of the same molecule?
Its GI50 is 50 to 500 nM.

And the GI50 [3]?
Its GI50 is 500 to 2500 nM.

And the GI50 [4]?
The GI50 was 500 to 2500 nM.

What about the GI50 [5] of the same molecule?
Its GI50 is 500 to 2500 nM.

And the GI50 [6]?
The GI50 was 500 to 2500 nM.

Which GI50 [1] does the source give for `C=Cc1cnc(Nc2cc(CC)c(N3CCC(N4CCN(C)CC4)CC3)cc2OC(F)(F)F)nc1Nc1ccc2nccnc2c1S(=O)(=O)NC` [IV-5] here?
The GI50 was 500 to 2500 nM.

What about the GI50 [2] of the same molecule?
Its GI50 is 500 to 2500 nM.

And the GI50 [3]?
Its GI50 is 50 to 500 nM.

What about the GI50 [4] of the same molecule?
Its GI50 is 50 to 500 nM.

What about the GI50 [5] of the same molecule?
The GI50 was 500 to 2500 nM.

What about the GI50 [6] of the same molecule?
Its GI50 is 500 to 2500 nM.

Which results are given for `C=Cc1cnc(Nc2cc(CC)c(N3CCC(N(C)C)CC3)cc2OC)nc1Nc1ccc2nccnc2c1N(C)S(C)(=O)=O` [II-2]?
GI50 [1]: ≤ 50 nM; GI50 [2]: ≤ 50 nM; GI50 [3]: ≤ 50 nM; GI50 [4]: ≤ 50 nM; GI50 [5]: ≤ 50 nM; GI50 [6]: ≤ 50 nM

With `C=Cc1cnc(Nc2cc(C)c(N3CCC(N4CCN(C)CC4)CC3)cc2OC)nc1Nc1ccc2nccnc2c1NS(=O)(=O)C(C)C` [II-43] as the molecule, how does the GI50 [1] read?
The GI50 was 50 to 500 nM.

And the GI50 [2]?
The GI50 was 50 to 500 nM.

And the GI50 [3]?
The GI50 was 50 to 500 nM.

What about the GI50 [4] of the same molecule?
The GI50 was 500 to 2500 nM.

What about the GI50 [5] of the same molecule?
The GI50 was 50 to 500 nM.

What about the GI50 [6] of the same molecule?
Its GI50 is 50 to 500 nM.

With `C=Cc1cnc(Nc2cc(C(C)C)c(N3CCC(N4CCN(C)CC4)CC3)cc2OC)nc1Nc1ccc2nccnc2c1P(C)(C)=O` [Compound I-16] as the molecule, how does the GI50 [1] read?
The GI50 was 50 to 500 nM.

What about the GI50 [2] of the same molecule?
The GI50 was 50 to 500 nM.

And the GI50 [3]?
Its GI50 is 50 to 500 nM.

What about the GI50 [4] of the same molecule?
Its GI50 is 50 to 500 nM.

What about the GI50 [5] of the same molecule?
The GI50 was 50 to 500 nM.

And the GI50 [6]?
The GI50 was 50 to 500 nM.

What does the source list for `C=Cc1cnc(Nc2cc(CC3CC3)c(N3CCC(N4CCN(C)CC4)CC3)cc2OC)nc1Nc1ccc2nccnc2c1S(C)(=O)=O` [III-13]?
GI50 [1]: 50 to 500 nM; GI50 [2]: 500 to 2500 nM; GI50 [3]: 50 to 500 nM; GI50 [4]: 50 to 500 nM; GI50 [5]: 500 to 2500 nM; GI50 [6]: 500 to 2500 nM

Which GI50 [1] does the source give for `C=C(C)c1cnc(Nc2cc[nH]n2)nc1Nc1ccc2nccnc2c1N(C)S(C)(=O)=O` [II-69] here?
Its GI50 is 50 to 500 nM.

What about the GI50 [2] of the same molecule?
Its GI50 is 50 to 500 nM.

What about the GI50 [3] of the same molecule?
Its GI50 is 500 to 2500 nM.

And the GI50 [4]?
The GI50 was 50 to 500 nM.

What about the GI50 [5] of the same molecule?
The GI50 was 500 to 2500 nM.

And the GI50 [6]?
Its GI50 is 50 to 500 nM.
